Series [1] in a line: ABTS initial absorbance (A436) reduction rate (Test Example 3). The format is physicochemical. As to conditions: for A436 reduction rate (%): in one minute at 25° C., 1 mM (single compound) or 0.011 g nitrogen element in 100 mL (composition), pH 8.5; for change of ABTS initial absorbance: reaction solution A, FIG. 2. An excerpt:
In the present specification, the absorbance of a solution containing ABTS (ABTS solution), at a wavelength of 436 nm, is defined as an ABTS initial absorbance (A436). In the present specification, the ABTS initial absorbance (A436) reduction rate (%) of the activity improving agent is defined to be a reduction rate (%) of the absorbance of a mixed solution, which contains the above ABTS solution and the above activity improving agent, at a wavelength of 436 nm in one minute, with respect to the ABTS initial absorbance (A436) (100%). Note that the ABTS solution is a solution in which the concentration of ABTS is adjusted such that the absorbance (A436) at a wavelength of 436 nm is approximately 1.3 at an optical path length of 1.0 cm. The value “approximately 1.3” here is intended to mean a value in a range in which 1.3 is obtained by rounding the value to the first decimal place. Test Examples described later will explain specific methods for measuring the absorbance (A436) of the ABTS solution at a wavelength of 436 nm and the ABTS initial absorbance (A436) reduction rate (%) of the activity improving agent. ABTS is an abbreviation for 2,2′-azinobis(3-ethylbenzothiazoline-6-sulfonic acid).
In the present activity improving method, when the ABTS initial absorbance (A436) reduction rate (%) of the activity improving agent is measured, the concentration of the activity improving agent in the ABTS solution for measurement is set as follows: (a) the concentration is set to 1 mM, when the molecular weight of the activity improving agent is evident as in a case where the activity improving agent is made of a single compound; and (b) when the activity improving agent is a substance which is made of a composition having an inevident molecular weight, the content of nitrogen element is used as a reference and the concentration is set such that the content of nitrogen element derived from the activity improving agent is 0.011 g in 100 mL of the ABTS solution for measurement. Note that, in the above (b), the content of nitrogen element derived from the activity improving agent in the ABTS solution is a value calculated by the Kjeldahl method.
The following describes a specific evaluation method. ABTS employed was an ABTS manufactured by Roche Diagnostics K.K. Further, the ABTS was dissolved in a 50 mM glycine-KOH (pH 8.5) buffer so that the concentration of the ABTS became 2.0 mg/mL. An ABTS solution was thus prepared. The absorbance of the ABTS solution at a wavelength of 436 nm (ABTS initial absorbance (A436)) was measured at an optical path length of 1.0 cm, by using a molecular absorption spectrometer Spectra Max Plus 384 (manufactured by Molecular Devices Japan K.K.). As a result the absorbance was approximately 1.3. Next, 5 μL of an activity improving agent solution or a comparative substance solution was added to 195 μL of the ABTS solution, so that a reaction solution for evaluating ABTS (hereinafter, also referred to as “reaction solution A”) was prepared. […]

In series [2] the target is T1, recombinant BOD (bilirubin oxidase) derived from Myrothecium verrucaria MT-1 (Albifimbria verrucaria, UniProt Q12737).
T1 construct: made in house; host or cells: Aspergillus sp
T1 sequence (Q12737 39-572): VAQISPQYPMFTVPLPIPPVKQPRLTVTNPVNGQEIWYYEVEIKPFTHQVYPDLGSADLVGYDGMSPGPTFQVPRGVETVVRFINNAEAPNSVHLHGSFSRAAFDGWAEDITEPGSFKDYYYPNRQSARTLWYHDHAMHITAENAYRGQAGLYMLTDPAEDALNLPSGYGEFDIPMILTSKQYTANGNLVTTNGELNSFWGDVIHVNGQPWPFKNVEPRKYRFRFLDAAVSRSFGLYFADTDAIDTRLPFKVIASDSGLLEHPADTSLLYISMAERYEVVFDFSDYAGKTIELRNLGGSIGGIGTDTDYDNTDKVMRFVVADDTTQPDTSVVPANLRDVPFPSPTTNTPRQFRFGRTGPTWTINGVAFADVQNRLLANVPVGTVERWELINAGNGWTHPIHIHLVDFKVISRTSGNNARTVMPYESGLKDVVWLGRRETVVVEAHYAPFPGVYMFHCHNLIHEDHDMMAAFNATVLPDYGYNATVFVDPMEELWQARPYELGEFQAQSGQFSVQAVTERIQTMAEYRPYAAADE
The experiment in a line: BOD activity after leaving the BOD solution with an activity improving agent or comparative substance at 30° C. in a deoxygenated atmosphere (Test Example 1). As to conditions: for Activity (%) Day 47: left 47 days at 30° C.; for Activity (%) Day 47 / Activity (%) Day 14: relative to Day 0, additive concentration as in Table 1; for Activity (%) Day 0: 30° C., additive concentration as in Table 1; for Activity (%) Day 14: left 14 days at 30° C. The format is biochemical. The method, then:
A BOD solution, which contains: a BOD; and the present activity improving agent or a comparative substance, was left in an environment at a temperature of 30° C. in a deoxygenated atmosphere for a certain period of time. After the BOD solution was left as above, improvement of the BOD activity by the present activity improving method was evaluated by measurement of the BOD activity.
In Test Example 1, a BOD gene derived from a Myrothecium verrucaria MT-1 (GenBank accession number: D12579.1) was introduced into an Aspergillus sp., and then a recombinant BOD (hereinafter, also referred to simply as “BOD”) expressed in the Aspergillus sp. was purified by using a well-known technique and then used as the BOD. The BOD gene derived from the Myrothecium verrucaria MT-1 was codon-optimized in accordance with a gene sequence of the Aspergillus sp., and then introduced into the Aspergillus sp. Further, the BOD thus purified was dissolved in a 50 mM glycine-KOH (pH 8.5) buffer so that the concentration of the BOD became 1.0 mg/mL. Then, a resultant solution was used as a BOD enzyme solution.
The enzymatic activity of the BOD was measured as follows. To 1780 μL of a 50 mM potassium phosphate buffer (pH 6.5), 200 μL of a 20 mM ABTS substrate solution was added, so that a mixed solution (1980 μL) was prepared. This mixed solution was incubated for 1 min at 37° C. Thereafter, 20 μL of a solution containing the BOD (specifically, a BOD solution for evaluation, which will be described later) was added to the mixed solution, and a resultant mixed solution (2 mL) was incubated at 37° C. While the mixed solution was incubated, the absorbance of the mixed solution at a wavelength of 436 nm was measured immediately after that addition of the BOD solution for evaluation (at 0 seconds) and thereafter every 20 seconds. On the basis of (i) the absorbance of the mixed solution at a wavelength of 436 nm immediately after the addition of the BOD solution for evaluation and (ii) the absorbance of the mixed solution at a wavelength of 436 nm after a lapse of 1 minute from the addition of the BOD solution for evaluation, calculation was carried out for obtaining an increase rate per minute of the absorbance of the mixed solution at a wavelength of 436 nm after the addition of the BOD solution for evaluation. The BOD activity (unit) in the BOD solution for evaluation was calculated from the increase rate. In the present specification, the amount of enzyme for oxidizing 1 μmol of ABTS per minute was defined as one unit.
A specific test method of Test Example 1 is as follows. To a BOD enzyme solution containing a BOD, one of the above-described present activity improving agents was added, so that a BOD solution (which is the BOD solution according to an embodiment of the present invention) was prepared. Further, one of the above-described comparative substances was added to the BOD enzyme solution, so that another BOD solution was prepared. In addition, still another BOD solution was prepared by adding, to the BOD enzyme solution, distilled water in place of the activity improving agent or the comparative substance, so that a control (denoted as Without additive in Tables 1 to 3) was prepared. The final concentration of the activity improving agent or the comparative substance in each of the above BOD solutions was shown in “mM” or “percentage (%)” (amount (g) of the activity improving agent or the comparative substance relative to 100 mL of the BOD solution) in Table 1.
Thereafter, one of these BOD solutions and a deoxygenating agent (Anaero Pack manufactured by Mitsubishi Gas Chemical Company, Inc.) were included in one container. Then, the container was sealed, so that a BOD container was prepared. The BOD container was left in an environment at a temperature of 30° C. in a deoxygenated atmosphere for 47 days (Table 2) or 14 days (Table 3). […]

Where [3] appears, read: Day 0 (start of leaving, set to 100%) of the 14-day test.
The mark [4] stands for this setting: Day 0 (start of leaving, set to 100%).

Structures are written as SMILES. Structures can show the parent of a compound that is named as a salt.

With `O[C@H](CS)[C@H](O)CS` (racemic) [DTT, dithiothreitol, reference compound], in series [1], the “A436 reduction rate (%)” value is recorded as 87.81%. For the same compound, the “Activity (%) Day 47” value in series [2] turned out to be 0%.

`N.N.O=S(=O)(O)O` [Ammonium sulfate, ammonium sulfate, reference compound]: in series [1], the “A436 reduction rate (%)” value is given as 0.00% and the “change of ABTS initial absorbance” value is given as “does not change”. Besides, in series [2] (setting [3]), the “Activity (%) Day 0” value stood at 100%. Moreover, the “Activity (%) Day 14” value in series [2] is recorded as 65%.

Regarding `N.O=C(O)CS` [Ammonium thioglycolate, ammonium thioglycolate, reference compound], in series [1], the “A436 reduction rate (%)” value was found to be 87.81%. Also, the “Activity (%) Day 0” value in series [2] (setting [4]) came out at 100%. Further, in series [2], the “Activity (%) Day 47” value is reported as 0%.

`NCCS` [Cysteamine hydrochloride, cysteamine hydrochloride, reference compound]: the “A436 reduction rate (%)” value in series [1] stood at 87.81%. The “Activity (%) Day 47” value in series [2] worked out at 1%.

Turning to `O=C(CS)OCC(O)CO` (stereo not shown) [GMT, glyceryl monothioglycolate, reference compound], the “A436 reduction rate (%)” value in series [1] is 87.81%. Besides, in series [2], the “Activity (%) Day 47” value was 1%.

With `N[C@@H](CCC(=O)N[C@@H](CS)C(=O)NCC(=O)O)C(=O)O` [Glutathione (reduced form), glutathione (reduced form)], the “A436 reduction rate (%)” value in series [1] was 87.81%. For the same compound, the “Activity (%) Day 0” value in series [2] (setting [4]) worked out at 100%. Further, the “Activity (%) Day 47” value in series [2] is on record as 113%.

Take `O=CC(=O)O` [Glyoxylic acid, glyoxylic acid]: the “A436 reduction rate (%)” value in series [1] came to 0.33%. Also, the “Activity (%) Day 14” value in series [2] turned out to be 194%.

Regarding `Cl.N[C@@H](CS)C(=O)O` [L-cysteine hydrochloride], the “A436 reduction rate (%)” value in series [1] was found to be 87.81%. In addition, in series [2], the “Activity (%) Day 47” value amounted to 130%.

`CC(=O)N[C@@H](CS)C(=O)O` [N-acetyl-L-cysteine]: the “A436 reduction rate (%)” value in series [1] amounted to 87.81%. Also, the “Activity (%) Day 47” value in series [2] came to 122%.

Consider `O=S([O-])[O-].[Na+].[Na+]` [Sodium sulfite, sodium sulfite], for which, in series [1], the “A436 reduction rate (%)” value stood at 87.81%. The “Activity (%) Day 0” value in series [2] (setting [4]) worked out at 100%. The “Activity (%) Day 47” value in series [2] turned out to be 162%.

As to `Cc1c(C)c2c(c(C)c1O)CCC(C)(C(=O)O)O2` (stereo not shown) [Trolox], the “A436 reduction rate (%)” value in series [1] amounted to 83.90%. Further, the “Activity (%) Day 47” value in series [2] came to 251%.

For `NC(N)=O` [Urea, urea, reference compound], in series [1], the “A436 reduction rate (%)” value is 0.00% and the “change of ABTS initial absorbance” value is reported as “does not change”. In addition, the “Activity (%) Day 0” value in series [2] (setting [3]) is 100%. Also, the “Activity (%) Day 14” value in series [2] is listed as 56%.

The values above are taken from US20220017877A1, “BILIRUBIN OXIDASE ACTIVITY IMPROVING METHOD, AND BILIRUBIN OXIDASE PRODUCT” (OZEKI CORPORATION, priority 2018, published 2022).
